Measurements as given in article PMC10299677, “Fluorinated Benzofuran and Dihydrobenzofuran as Anti-Inflammatory and Potential Anticancer Agents” (International Journal of Molecular Sciences, 2023).

How the values were obtained:
COX-2 protein expression = COX-2 protein expression in LPS-treated macrophages (Western blot); type: cell-based, C57BL/6J mice; details: 10 µM for compounds 1, 7, 9, 50 µM for others, LPS 24 h
Method: Figure 4 Effects of the fluorinated benzofuran and dihydrobenzofuran on COX-2 and NOS2 protein expressions. COX-2 and NOS2 protein expressions were assessed in macrophages incubated with only 10 µM for compounds 1, 7, and 9, and 50 µM for the other compounds, for 30 min prior to the addition of 10 ng/mL LPS for 24 h. β-actin was used as a loading control, and densitometric analysis was performed using ImageJ software (NIH, MA). Data are expressed as fold of LPS-treated macrophages and represented as mean ± SEM of 4 different experiments; * p < 0.05 versus LPS (one-way ANOVA followed by Dunnett’s test).
Macrophages were incubated with the compounds for 30 min prior to the addition of 10 ng/mL LPS for 24 h. Protein levels for COX-2 and NOS2 were detected in LPS-stimulated macrophages. As previously described, 10 µg of total protein was assessed. The primary antibodies were developed and characterized as previously described: for COX-2, mouse monoclonal antibody anti-COX-2 (clone COX-214, 1/5000); for NOS2, rabbit polyclonal antibody anti-NOS2 (dilution1/2000 [33]). Antibodies anti-phospho-NF-κB (3033S), phospho-IκBα (9246S), and total IκBα (4814S) were from Cell Signaling Technologies (Danvers, MA, USA). Total NF-κB C-20 (sc-372) was from Santa Cruz Biotechnologies (Dallas, TX, USA), and mouse β-actin (dilution 1/10,000) (Sigma-Aldrich, A5441). Clarity™ western ECL substrate (Bio-Rad Laboratories 10-5061) was used according to the manufacturer’s instructions to reveal positive bands visualized using Bio-Rad ChemiDoc. For Bcl-2 and cleaved PARP-1, HCT116 cells were plated in 6-well plates (200,000 cells per well) for 24 h, and treated with compounds 1 and 2 at 10, 25, and 50 µM for 72 h. Supernatants and cells were collected and lysed using RIPA lysis buffer containing inhibitors of protease. Western blot of Bcl-2 and cleaved PARP-1 was performed using 25 µg of total protein with a rabbit polyclonal antibody anti-Bcl-2 (1/500) (Santa Cruz Biotechnology, sc-492), rabbit polyclonal antibody anti-PARP-1 (1/1000) (Santa Cruz Biotechnology, sc-7150), and mouse anti-β-actin (dilution 1/10,000) (Sigma-Aldrich, A5441).
Densitometric analyses were performed using ImageJ software (NIH, MA, USA). The ratio of the different analyzed bands to β-actin was determined and data are represented as fold change compared to the LPS-treated cells. Percentage of viable cells for proliferation assay was determined as percentage to control (non-treated cells). For TUNEL assay, apoptotic cells were quantified, and results were expressed as percentage to positive cells (cleaved DNA) compared to control (non-treated cells). Statistical analysis was performed using one-way ANOVA, followed by Dunnett’s multiple comparisons test using GraphPad Prism software. Differences were considered significant when p < 0.05.

IL-6 = IL-6 release in LPS-treated macrophages (BMDM); type: cell-based, C57BL/6J mice; details: for decrease of IL-6 production: 50 µM, LPS 24 h; for IC50: Mus musculus, Macrophage, compounds 30 min prior to 10 ng/mL LPS for 24 h
Method: C57BL/6J (10–15 weeks old) male mice were obtained from the animal care facility at the American University of Beirut. All animal procedures were performed following the recommendations of the IACUC (Institutional Animal Care and Use Committee approval 16-09-M379). BMDMs were prepared and characterized as described previously by our group. BMDMs were isolated from C57BL/6J mice by flushing the femur and tibia with RPMI-1640 culture media (Sigma-Aldrich R7388), and cells were collected and centrifuged at 300× g for 5 min. The supernatant was discarded, and the pellet was resuspended in 2 mL red blood lysis 10% (Sigma-Aldrich R7767) medium in PBS and incubated for 5 min at room temperature. After diluting the suspension of cells with 5 mL of RPMI containing 10% FBS and 1% penicillin–streptomycin, cells were centrifuged at 300× g for 5 min, and the cell pellet was resuspended in RPMI media containing 10% FBS supplemented with 15% L929-conditioned medium containing macrophage-colony stimulating factor (M-CSF1) and plated on […]. Cells were allowed to proliferate and differentiate for 5–6 days. Cells were harvested, washed, and allowed to adhere overnight in RPMI containing 10% FBS for treatment. Cells were previously characterized by flow cytometry as macrophages using this method. […] Cells were plated at 0.8 × 10^6 cells per 3.8 cm^2 well [27].
BMDMs were then treated with different concentrations of the benzofuran and dihydrobenzofuran derivatives for 30 min prior to the addition of 10 ng/mL LPS for 24 h. […] The supernatants were assessed for IL-6, PGE2, CCL2, and nitrite, the stable derivative of NO, as described previously.
IL-6, CCL2, nitrite (for NO), and PGE2 concentrations from 3–5 independent experiments were expressed as percentage of LPS alone and as mean ± SEM. COX activity was determined as percentage of PGE2 produced from exogenous arachidonic acid. Curve fitting and calculation of IC50 values were performed using GraphPad Prism (version 9.5.1 Software, La Jolla, CA, USA).

Structure (SMILES) | IC50 (IL-6) | effect on LPS-induced COX-2 protein expression (COX-2 protein expression) | decrease of IL-6 production (IL-6)
C=C(C)c1ccc2oc(CC(=O)O)c(F)c2c1 [Compound 6] |  | no effect | 
O=C(O)/C=C1\Oc2ccc(Br)cc2C1(F)F [Compound 3] | 5.21 µM |  | more than 50%
COC(=O)/C=C1/Oc2ccc(Br)cc2C1(F)F [Compound 1] |  | loss of this inhibitory effect | 
O=C(O)Cc1oc2ccc(-c3ccccc3)cc2c1F [Compound 5] |  | no effect | 

Second part, led by results:

IC50 (IL-6) | Structure (SMILES) | effect on LPS-induced COX-2 protein expression (COX-2 protein expression) | decrease of IL-6 production (IL-6)
9.04 µM | COC(=O)CC1(O)Oc2ccc(Br)cc2C1(F)F (stereo not shown) [Compound 8] |  | more than 50%
1.23 µM | O=C(O)/C=C1/Oc2ccc(Br)cc2C1(F)F [Compound 2] | significantly decreased | more than 50%
